ChEMBL document CHEMBL4373694 (J Med Chem, 2019)
The source made the active and inactive calls. No cut-off for these calls is given here.

How the values were obtained:
[1] = Inhibition of human 20S proteasome beta 1i
[2] = Inhibition of 20S proteasome beta 1c derived from human erythrocytes preincubated for 1 hr using Z-nLPnLD-Glo peptide as substrate by proteasome-glo caspase-like assay
[3] = Inhibition of 20S proteasome beta 5i/20S proteasome beta 1i in human PBMC cell lysate assessed as reduction in chymotrypsin-like activity pre-incubated for 30 mins followed by Meo-Suc-GLF-AM substrate addition and measured after 30 mins by fluorescence assay; format: subcellular
[4] = Inhibition of human 20S proteasome beta 5i preincubated for 1 hr followed by fluorescence based assay
[5] = Inhibition of 20S proteasome beta 5c (unknown origin) preincubated for 1 hr followed by fluorescence based assay; parameters: species or system Homo sapiens
[6] = species: Homo sapiens; experiment: Selectivity ratio, ratio of IC50 for 20S proteasome beta 5c (unknown origin) to IC50 for human 20S proteasome beta 5i
[7] = species: Homo sapiens; experiment: Inhibition of 20S proteasome beta 5i in human PBMC cells assessed as induction of PSMB7 expression at 100 nM after 3 to 72 hrs by RT-PCR method; format: cell-based
[8] = species: Homo sapiens; experiment: Inhibition of 20S proteasome beta 5i in human PBMC cells assessed as induction of PSMB5 expression at 100 nM after 3 to 72 hrs by RT-PCR analysis; format: cell-based
[9] = species: Homo sapiens; experiment: Selectivity ratio, ratio of IC50 for 20S proteasome beta 5c (unknown origin) to IC50 for human 20S proteasome beta 1i
[10] = species: Homo sapiens; experiment: Inhibition of 20S proteasome beta 5i in human PBMC cells assessed as induction of PSMB6 expression at 100 nM after 3 to 72 hrs by RT-PCR analysis; format: cell-based
[11] = Cytotoxicity against human plasmablasts assessed as reduction in cell viability by CellTiter Glo assay; format: functional
[12] = species: Homo sapiens; experiment: Selectivity ratio, ratio of IC50 for human 20S proteasome beta 1i to IC50 for 20S proteasome beta 5i (unknown origin)
[13] = system: PBMC; experiment: Cytotoxicity against human PBMC cells assessed as reduction in cell viability by CellTiter Glo assay; format: functional, cell-based
[14] = Cytotoxicity against human pDC assessed as reduction in cell viability by CellTiter Glo assay; format: functional
[15] = species: Homo sapiens; experiment: Selectivity ratio, ratio of IC50 for 20S proteasome beta 1c (unknown origin) to IC50 for human 20S proteasome beta 5i
[16] = system: PBMC; experiment: Induction of apoptosis in human PBMC cells at 10 uM after 12 hrs by caspase 3,7-glo assay; format: functional, cell-based
[17] = species: Homo sapiens; experiment: Inhibition of 20S proteasome beta 5i in human PBMC cells assessed as upregulation of 20S proteasome beta 5c level at 100 nM after 24 to 72 hrs by Western blot analysis; format: cell-based
[18] = species: Homo sapiens; experiment: (§1) Cytotoxicity against anti-CD3/CD28-stimulated human CD4-positive T cells with CRISP/CAS9 20S proteasome beta 5c knockout assessed as reduction in cell viability measured on day 8 by CellTiter Glo assay relative to control; format: functional
[19] = system: PBMC; experiment: Induction of ubiquitin accumulation in human PBMC cells at 100 nM after 6 hrs by Western blot analysis; format: functional, cell-based
[20] = Cytotoxicity against anti-CD3/CD28-stimulated human CD4-positive T cells with CRISP/CAS9 20S proteasome beta 5i knockout assessed as reduction in cell viability measured on day 8 by CellTiter Glo assay relative to control; format: functional
[21] = as §1; format: functional

| Compound | IC50 [1] [µM] | IC50 [2] [µM] | IC50 [3] [µM] | IC50 [4] [µM] | IC50 [5] [µM] | Ratio IC50 [6] | Ratio IC50 [9] | further results |
| --- | --- | --- | --- | --- | --- | --- | --- | --- |
| CC(C)C[C@H](NC(=O)c1nnc(Cc2ccccc2)[nH]1)B(O)O | 0.0063 | 0.061 | 0.2 | 0.019 | 0.35 | – | – | – |
| COC[C@H](NC(=O)c1cc(C)on1)C(=O)N[C@H](C(=O)N[C@@H](CC(C)C)C(=O)[C@@]1(C)CO1)C1CC1 | 0.69 | 11 | – | 2.1 | 0.078 | 0.04 | 0.11 | inhibition [7]: Active; inhibition [8]: Active; inhibition [10]: Active |
| Cc1ccc(C[C@H](NC(=O)c2cn(-c3ccccc3)nn2)B2O[C@@H]3C[C@@H]4C[C@@H](C4(C)C)[C@]3(C)O2)c(C)c1 | 0.05 | > 20 | 0.0069 | 0.00068 | 0.27 | – | – | – |
| CC(C)C[C@H](NC(=O)c1cc(Cc2ccccc2)on1)B(O)O | 0.0094 | 1.4 | 0.085 | 0.023 | 3 | – | – | – |
| CC(C)C[C@H](NC(=O)c1cn(C2CCCCC2)nn1)B(O)O | 0.00085 | 0.48 | 0.06 | 0.0041 | 2.9 | 710 | 1300 to 3400 | IC50 [11]: 2.9 µM; Ratio IC50 [12]: 0.2; IC50 [13]: 7.3 µM; IC50 [14]: 3.7 µM; Ratio IC50 [15]: 120 |
| Cc1c(C(=O)N[C@@H](CC(C)C)B(O)O)nnn1Cc1ccccc1 | 0.015 | > 20 | 0.29 | 0.04 | 7.3 | – | – | Ratio IC50 [12]: 0.4 |
| CC(C)C[C@H](NC(=O)c1cn(-c2ccccc2)nn1)B(O)O | 0.00058 | 4.2 | 0.025 | 0.0014 | 0.76 | – | 1300 to 3400 | – |
| O=C(N[C@@H](Cc1ccc(Cl)cc1)B(O)O)c1cnn(Cc2ccccc2)c1 | 0.11 | > 20 | 0.47 | 0.087 | 7.7 | – | – | – |
| Cc1ccc(C[C@H](NC(=O)c2cn(Cc3ccccc3)nn2)B2O[C@@H]3C[C@@H]4C[C@@H](C4(C)C)[C@]3(C)O2)c(C)c1 | 0.017 | > 20 | 0.011 | 0.0012 | 0.42 | – | – | – |
| Cc1ccc(C[C@H](NC(=O)c2nnn(Cc3ccccc3)c2C)B2O[C@@H]3C[C@@H]4C[C@@H](C4(C)C)[C@]3(C)O2)c(C)c1 | 8.5 | > 20 | 0.079 | 0.0041 | 9.1 | 2200 | – | IC50 [11]: 9.3 µM; Ratio IC50 [12]: 2100; IC50 [13]: > 10 µM; IC50 [14]: > 10 µM; Ratio IC50 [15]: > 4800 |
| O=C(N[C@@H](Cc1ccc(Cl)cc1)B(O)O)c1cn(-c2ccccc2)nn1 | 0.015 | 5.5 | 0.0032 | 0.00091 | 0.064 | – | – | – |
| C=CC(=O)N(CC(=O)N[C@@H](Cc1ccc(C)cc1C)B(O)O)c1ccccc1F | 2.2 | > 20 | – | 0.0081 | 2.4 | 283 to 296 | 1.1 | Activity [16]: inactive; IC50 [11]: 0.67 µM; inhibition [7]: Active; inhibition [17]: Active; Ratio IC50 [12]: 247; IC50 [13]: 5.7 µM; inhibition [8]: Active; Activity [18]: Active; Activity [19]: inactive; inhibition [10]: Active; IC50 [14]: 6 µM; Ratio IC50 [15]: > 2400 |
| O=C(N[C@@H](Cc1ccc(Cl)cc1)B(O)O)c1cn(Cc2ccccc2)nn1 | 0.0039 | 0.53 | 0.0023 | 0.00054 | 0.046 | – | – | – |
| COc1ccc(C(=O)NCCn2cc(C(=O)N[C@@H](CC(C)C)B(O)O)nn2)c(OC)c1OC | 0.0081 | 1.4 | 0.034 | 0.0022 | 0.037 | 17 | 5.2 | IC50 [11]: 0.054 µM; inhibition [7]: Active; Ratio IC50 [12]: 5.2; IC50 [13]: 0.1 µM; inhibition [8]: Active; inhibition [10]: Active; IC50 [14]: 0.022 µM; Ratio IC50 [15]: 640 |
| CC(C)C[C@H](NC(=O)[C@H](Cc1ccccc1)NC(=O)c1cnccn1)B(O)O [BORTEZOMIB] | 0.0079 | 0.032 | – | – | – | – | – | IC50 [11]: 0.0039 µM; inhibition [7]: Active; fold change (FC) [20]: 3; IC50 [13]: 0.0027 µM; inhibition [8]: Active; fold change (FC) [21]: 3; inhibition [10]: Active; IC50 [14]: 0.0052 µM |
| Cc1c(C(=O)N[C@@H](CC(C)C)B(O)O)nnn1-c1ccccc1 | 0.041 | 18 | 0.31 | 0.13 | > 10 | – | – | – |
| CC(C)C[C@H](NC(=O)c1cn(C)nn1)B1O[C@@H]2C[C@@H]3C[C@@H](C3(C)C)[C@]2(C)O1 | 0.009 | > 20 | 0.25 | 0.055 | 9.6 | 174 | – | – |
| CC(C)C[C@H](NC(=O)c1cn(Cc2ccccc2)nn1)B(O)O | 0.00055 | 0.071 | 0.045 | 0.004 | 0.89 | 220 to 710 | 1300 to 3400 | Ratio IC50 [12]: 0.14 |
| Cc1ccc(C[C@H](NC(=O)c2cc(Cc3ccccc3)on2)B2O[C@@H]3C[C@@H]4C[C@@H](C4(C)C)[C@]3(C)O2)c(C)c1 | 0.092 | > 20 | 0.08 | 0.0041 | 1.3 | – | – | – |
| O=C(N[C@@H](Cc1ccc(Cl)cc1)B(O)O)c1cnn(-c2ccccc2)c1 | 0.012 | > 20 | 0.13 | 0.0068 | 3.2 | – | – | – |
| COc1ccc(C[C@H](NC(=O)[C@H](C)NC(=O)CN2CCOCC2)C(=O)N[C@@H](Cc2ccccc2)C(=O)[C@@]2(C)CO2)cc1 | 0.79 | 13 | – | 0.145 | 1.3 | 9 to 20 | 1.6 | inhibition [7]: Active; inhibition [8]: Active; inhibition [10]: Active |
| CC(C)C[C@H](NC(=O)c1ncn(Cc2ccccc2)n1)B(O)O | 0.019 | > 20 | 8.9 | 0.36 | > 10 | – | – | – |
